Test results from the NIST ThermoML archive (doi:10.1016/j.fluid.2012.11.013).

Conditions: Liquid, Vibrating tube method

CCCC(C)C [2-methylpentane]
mass density [kg/m3]
Conditions | 283.15 K | 288.15 K | 293.15 K | 298.15 K | 303.15 K | 308.15 K | 313.15 K | 318.15 K | 323.15 K | 328.15 K
100 kPa | 662.38 | 657.8 | 653.28 | 648.63 | 643.96 | 639.25 | 634.49 | 629.65 | 624.76 | 619.82
2000 kPa | 664.49 | 659.95 | 655.38 | 651 | 646.27 | 641.65 | 637.11 | 632.32 | 627.48 | 622.75
5000 kPa | 667.45 | 663.16 | 658.76 | 654.32 | 649.83 | 645.36 | 640.96 | 636.32 | 631.78 | 627.22
7000 kPa | 669.44 | 665.17 | 660.81 | 656.61 | 652.12 | 647.77 | 643.31 | 638.86 | 634.39 | 629.87
10000 kPa | 672.23 | 668.05 | 663.8 | 659.71 | 655.36 | 651.1 | 646.93 | 642.49 | 638.24 | 633.86
20000 kPa | 680.99 | 677.13 | 673.11 | 669.38 | 665.3 | 661.38 | 657.45 | 653.46 | 649.56 | 645.47
30000 kPa | 689.02 | 685.21 | 681.56 | 677.93 | 673.98 | 670.38 | 666.76 | 663.07 | 659.4 | 655.55
40000 kPa | 696.18 | 692.59 | 689.05 | 685.62 | 682.03 | 678.4 | 675.03 | 671.49 | 667.99 | 664.47
50000 kPa | 702.82 | 699.4 | 695.95 | 692.66 | 689.27 | 685.81 | 682.68 | 679.17 | 675.91 | 672.49
60000 kPa | 708.98 | 705.61 | 702.39 | 699.21 | 695.84 | 692.62 | 689.53 | 686.27 | 683.16 | 679.93
65000 kPa | 711.97 | 708.71 | 705.49 | 702.34 | 699.14 | 695.97 | 692.86 | 689.7 | 686.56 | 683.41
